{"source": "patent US9889087B2", "about": "“Intranasal delivery of β2-adrenergic receptor agonists for improving cognition in humans with down syndrome and compositions therefor” (priority 2014, dated 2018)", "key": {"Ts65Dn mice": {"test_system": "Ts65Dn mice", "conditions": "cited from earlier work; for contextual learning: earlier studies"}, "Ts65Dn and 2N mice [1]": {"test_system": "Ts65Dn and 2N mice", "assay": "Cardiovascular and respiratory system monitoring (MouseOx vital signs)", "type": "in vivo, mouse", "conditions": "2N and Ts65Dn mice", "experimental": "Cardiovascular and Respiratory System Monitoring. […] The monitor was attached to a collar clip with an LED sensor to enable recordings in free-moving mice. To minimize stress before recording, the collar clip was attached to each animal. After five minutes, heart rate, respiratory rate, and oxygen saturation were recorded using MOUSEOX® 6.3.13 for 10 minutes."}, "Ts65Dn and 2N mice [2]": {"test_system": "Ts65Dn and 2N mice", "protocol": "b) Fear Conditioning. […] The fear conditioning tests were done using four FreezeScan chambers (Clever Sys) on days 4 and 5 after the start of the open field-testing. […] Four hours later, the mice were placed in the fear-conditioning chamber and their baseline activity was recorded for three minutes. At the end of this period, each mouse was exposed to five shocks (2 seconds each, 0.5 mA) with inter-trial intervals of 80 seconds. Twenty-four hours later, the mice were injected again, similar to the Training Day, and returned to the same fear-conditioning chamber for five minutes and their activity was recorded. Freezing was defined as a lack of movement for 3 frames."}, "Ts65Dn and 2N mice [3]": {"test_system": "Ts65Dn and 2N mice", "conditions": "intranasal 2 mg per kg for 5 days", "text": "Mice were acclimated to handling for a period of two weeks before the onset of intranasal dosing. Acclimation helped to ensure a correct body position for maximum effectiveness of awake intranasal drug delivery. In addition, acclimation prevented the occurrence of anxiety reaction after dosing. Mice spent about 2-3 days on each of nine steps before progressing to the next step, depending upon the animal's comfort to handling. The mouse's stress level was used as a measure of progress. To do this, the mouse's movements, the amount and frequency of urination, defecation, trembling and biting were assessed.\n7) The mouse was placed back on top of his cage for 2 min. and the entire process was repeated starting 2 min. after delivery of the first drop. All together the mouse received four drops of up to 6 μl each totaling a maximum volume of 24 μl of solution.\nThe training began on the 4th day of intranasal dosing.\nThe testing day was done on the 5th and final day of dosing.\nThe first trial for each mouse was done 3 hours post-intranasal dose.\n6) The number of incorrect arm entries was quantified. Entries into the goal arm were not counted as errors, even if the platform was not located. An entry was considered to occur when all four legs of the mouse had entered the alley completely and the mouse was parallel to the alley walls. […]"}, "physchem": {"assay": "physchem", "conditions": "water"}, "[4]": {"conditions": "in vivo; cited from earlier work"}, "Ts65Dn and 2N mice [5]": {"test_system": "Ts65Dn and 2N mice", "assay": "BrdU cell proliferation count in the DG", "type": "in vivo, mouse", "conditions": "nadolol alone or nadolol + formoterol", "protocol": "To identify proliferating cells, we used 5-bromo-2′-deoxyuridine (BrdU, Sigma). It was dissolved in PBS, filtered, and kept at 4° C. till use. After 15 days of treatment, each mouse was injected IP daily (50 mg/kg) with BrdU solution for 5 days. Thereafter, on day 21, all mice were anesthetized and transcardially perfused with ice-cold saline. The entire brain was immediately removed and the two hemispheres were separated. The left hemisphere was fixed overnight, cut, and stored. […] This was followed by incubation of sections in ABC.\nStereo-Investigator (MBF) was used to quantify the total number of BrdU-positive cells in the entire septo-temporal extent of DG. Following the outlining of the DG area at 4×, each positive profile was identified using a 100× oil objective. […] A Nanozoomer system (Hamamatsu 2.0 RS) was used to capture images of the entire slide in each case. High magnification images were captured using the Nanozoomer and stored."}}, "note": "Where two headings read alike, the source gives them in different places.", "data": [{"compound": "N[C@H](C(=O)O)[C@H](O)c1ccc(O)c(O)c1", "note": "[L-DOPS, L-threo-3,4-dihydroxyphenylserine]", "values": [{"measurement": "contextual learning", "setting": "Ts65Dn mice", "value": "restored"}]}, {"compound": "COc1ccc(CC(C)NCC(O)c2ccc(O)c(NC=O)c2)cc1", "note": "(stereo not shown) [formoterol]", "values": [{"measurement": "effect on oxygen saturation", "setting": "Ts65Dn and 2N mice [1]; formoterol together with nadolol", "value": "no significant effects"}, {"measurement": "effect on heart rate", "setting": "Ts65Dn and 2N mice [1]; ANOVA treatment effect", "value": "No significant effects"}, {"measurement": "effect on respiratory rate", "setting": "Ts65Dn and 2N mice [1]; ANOVA treatment effect", "value": "No significant effects"}, {"measurement": "contextual learning", "setting": "Ts65Dn and 2N mice [2]; 2N mice", "value": "improvement"}, {"measurement": "contextual learning", "setting": "Ts65Dn and 2N mice [2]; Ts65Dn mice, 6 months, vs nadolol only", "value": "significant improvement"}, {"measurement": "freezing behavior within first five minutes in context", "setting": "Ts65Dn and 2N mice [2]; Ts65Dn mice, vs nadolol only", "value": "significant increase"}, {"measurement": "spatial learning", "setting": "Ts65Dn and 2N mice [3]", "value": "significant improvement"}, {"measurement": "solubility", "setting": "physchem", "value": "~17.2", "unit": "mg/mL"}, {"measurement": "crossing of the blood brain barrier", "setting": "[4]", "value": "cross the blood brain barrier"}]}, {"compound": "CC(C)(C)NCC(O)COc1cccc2c1CC(O)C(O)C2", "note": "(stereo not shown) [nadolol]", "values": [{"measurement": "total number of BrdU-positive profiles in the DG", "setting": "Ts65Dn and 2N mice [5]", "value": "3,161.930±900"}]}, {"compound": "O=C(NCCNCC(O)COc1ccc(O)cc1)N1CCOCC1", "note": "(stereo not shown) [xamoterol]", "values": [{"measurement": "contextual learning", "setting": "Ts65Dn mice", "value": "significantly improve"}, {"measurement": "spatial learning and/or hyperactivity", "setting": "Ts65Dn mice; later studies", "value": "did not improve"}]}]}
